Experimental data from patent publication US8148400B2, “Thiazolyl compounds useful as kinase inhibitors” (Bristol-Myers Squibb Company, priority 2006, dated 2012).
Structures can show the parent of a compound that is named as a salt.

Target: IGF1-receptor (Homo sapiens, UniProt P08069)
Assay: IGF1-Receptor Tyrosine Kinase Assay
Assay type: biochemical
Settings: ATP 25 μM; FL-peptide 1.5 μM; IGF1-Receptor 14 nM; 60 min room temperature; read-out: IGF-1R IC50
Description: D. IGF1-Receptor Tyrosine Kinase Assay
The assays were performed in U-bottom 384-well plates. The final assay volume was 30 μl prepared from 15 μl additions of enzyme and substrates (fluoresceinated IGF1R substrate peptide and ATP) and test compounds in assay buffer (100 mM HEPES pH 7.4, 10 mM MnCl2, 0.015% Brij35 and 4 mM DTT). The reaction was initiated by the combination of IGF1-receptor with substrates and test compounds. The reaction was incubated at room temperature for 60 min. and terminated by adding 30 μl of 35 mM EDTA to each sample. The reaction mixture was analyzed on the Caliper LabChip 3000 by electrophoretic separation of the fluorescent substrate and phosphorylated product. Inhibition data were calculated by comparison to no enzyme control reactions for 100% inhibition and vehicle-only reactions for 0% inhibition. The final concentration of reagents in the assays is ATP, 25 μM; FL-peptide, 1.5 μM; IGF1-Receptor, 14 nM; and DMSO, 1.6%. Dose response curves were generated to determine the concentration required to inhibit 50% of kinase activity (IC50). Compounds were dissolved at 10 mM in dimethylsulfoxide (DMSO) and evaluated at eleven concentrations, each in duplicate. IC50 values were derived by non-linear regression analysis.

IGF1-receptor, sequence (P08069 31-1367): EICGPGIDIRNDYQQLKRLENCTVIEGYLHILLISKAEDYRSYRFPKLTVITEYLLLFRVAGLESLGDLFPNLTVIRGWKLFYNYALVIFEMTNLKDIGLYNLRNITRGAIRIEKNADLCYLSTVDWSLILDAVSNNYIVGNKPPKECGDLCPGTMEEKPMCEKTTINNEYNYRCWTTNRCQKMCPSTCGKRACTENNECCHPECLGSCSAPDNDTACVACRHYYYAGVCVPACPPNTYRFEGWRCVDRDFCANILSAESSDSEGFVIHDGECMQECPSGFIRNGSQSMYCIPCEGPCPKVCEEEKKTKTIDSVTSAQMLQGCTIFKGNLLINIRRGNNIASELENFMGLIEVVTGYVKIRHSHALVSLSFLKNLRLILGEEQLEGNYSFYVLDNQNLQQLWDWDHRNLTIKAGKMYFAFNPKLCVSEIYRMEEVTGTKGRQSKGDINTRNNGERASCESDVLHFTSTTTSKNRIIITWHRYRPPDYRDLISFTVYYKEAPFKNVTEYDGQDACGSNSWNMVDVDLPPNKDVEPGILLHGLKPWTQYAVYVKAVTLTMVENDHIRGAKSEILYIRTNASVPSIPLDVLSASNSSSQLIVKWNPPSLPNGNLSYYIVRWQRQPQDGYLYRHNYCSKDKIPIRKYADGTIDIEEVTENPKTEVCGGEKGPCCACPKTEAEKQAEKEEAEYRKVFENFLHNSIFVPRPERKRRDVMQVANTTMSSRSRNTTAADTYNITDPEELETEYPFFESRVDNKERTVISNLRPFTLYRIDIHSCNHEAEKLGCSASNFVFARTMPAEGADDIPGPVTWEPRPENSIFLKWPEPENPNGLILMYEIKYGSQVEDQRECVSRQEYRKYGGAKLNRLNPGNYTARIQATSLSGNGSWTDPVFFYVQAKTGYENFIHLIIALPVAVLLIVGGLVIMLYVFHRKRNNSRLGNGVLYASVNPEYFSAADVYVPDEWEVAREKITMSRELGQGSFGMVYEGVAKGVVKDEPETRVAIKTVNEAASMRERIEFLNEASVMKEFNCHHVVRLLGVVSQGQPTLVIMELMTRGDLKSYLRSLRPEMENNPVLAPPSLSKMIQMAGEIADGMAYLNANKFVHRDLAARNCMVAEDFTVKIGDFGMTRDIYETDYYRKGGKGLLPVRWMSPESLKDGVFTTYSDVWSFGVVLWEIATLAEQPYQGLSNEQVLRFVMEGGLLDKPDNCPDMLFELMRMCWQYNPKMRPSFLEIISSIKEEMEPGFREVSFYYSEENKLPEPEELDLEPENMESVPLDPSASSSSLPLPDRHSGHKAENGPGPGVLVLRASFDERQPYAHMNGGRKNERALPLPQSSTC

| Compound | IC50 [nM] |
| --- | --- |
| Cc1ccnc(Nc2ncc(Sc3ccnc(C(=O)NCC(c4ccccc4)c4ccccc4Br)c3F)s2)c1 (stereo not drawn) [Example 58, N-(2-(2-bromophenyl)-2-phenylethyl)-3-fluoro-4-(2-(4-methylpyridin-2-ylamino)thiazol-5-ylthio)picolinamide] | 1520 |
| CCCC(O)(CNC(=O)c1nccc(Sc2cnc(Nc3ccc(CNC)cn3)s2)c1F)c1ccccc1 (stereo not drawn) [Example 82, 3-Fluoro-N-(2-hydroxy-2-phenylpentyl)-4-(2-(5-((methylamino)methyl)pyridin-2-ylamino)thiazol-5-ylthio)picolinamide] | 3 |
| CCC[C@@](O)(CNC(=O)c1nccc(Sc2cnc(Nc3nccc4sccc34)s2)c1F)c1ccccc1 [Example 83, (S)-3-fluoro-N-(2-hydroxy-2-phenylpentyl)-4-(2-(thieno[3,2-c]pyridin-4-ylamino)thiazol-5-ylthio)picolinamide] | 394 |
| CCCC(O)(CNC(=O)c1nccc(Sc2cnc(Nc3ccc(CNC(=O)CN(C)C)cn3)s2)c1F)c1ccccc1 (stereo not drawn) [Example 77, 4-(2-(5-((2-(Dimethylamino)acetamido)methyl)pyridin-2-ylamino)thiazol-5-ylthio)-3-fluoro-N-(2-hydroxy-2-phenylpentyl)picolinamide] | 4 |
| Cc1ccnc(Nc2ncc(Sc3ccnc(C(=O)NCC(c4ccccc4)c4ccccc4C)c3F)s2)c1 (stereo not drawn) [Example 56, 3-fluoro-4-(2-(4-methylpyridin-2-ylamino)thiazol-5-ylthio)-N-(2-phenyl-2-o-tolylethyl)picolinamide] | 891 |
| O=C(NCCc1c[nH]c2ccc(O)cc12)c1nccc(Sc2cnc(Nc3ccccn3)s2)c1F [Example 33, 3-Fluoro-N-(2-(5-hydroxy-1H-indol-3-yl)ethyl)-4-(2-(pyridin-2-ylamino)thiazol-5-ylthio)picolinamide] | 693 |
| Cc1ccnc(Nc2ncc(Sc3ccnc(C(=O)NCC(c4ccccc4)c4cccc(CO)c4)c3F)s2)c1 (stereo not drawn) [Example 67, 3-Fluoro-N-(2-(3-(hydroxymethyl)phenyl)-2-phenylethyl)-4-(2-(4-methylpyridin-2-ylamino)thiazol-5-ylthio)picolinamide hydrochloride] | 288 |
| (S)-3-Fluoro-N-(2-(2-(hydroxymethyl)phenyl)-2-phenylethyl)-4-(2-(pyridin-2-ylamino)thiazol-5-ylthio)picolinamide and (R)-3-fluoro-N-(2-(2-(hydroxymethyl)phenyl)-2-phenylethyl)-4-(2-(pyridin-2-ylamino)thiazol-5-ylthio)picolinamide [Example 64] | 316 |
| O=C(NCC(c1ccccc1)c1ccccc1CO)c1nccc(Sc2cnc(Nc3ccccn3)s2)c1F (stereo not drawn) [Example 63, 3-Fluoro-N-(2-(2-(hydroxymethyl)phenyl)-2-phenylethyl)-4-(2-(pyridin-2-ylamino)thiazol-5-ylthio)picolinamide] | 250 |
| Cc1ccnc(Nc2ncc(Sc3ccnc(C(=O)NCC(c4ccccc4)c4ccccc4CO)c3F)s2)c1 (stereo not drawn) [Example 65, 3-Fluoro-N-(2-(2-(hydroxymethyl)phenyl)-2-phenylethyl)-4-(2-(4-methylpyridin-2-ylamino)thiazol-5-ylthio)picolinamide] | 1 |

Results, then the compound that gave them:

| IC50 [nM] | Compound |
| --- | --- |
| 199 | Cc1ccnc(Nc2ncc(Sc3ccnc(C(=O)NCC(CNC(C)(C)C)(c4ccccc4)c4ccccc4)c3F)s2)c1 [Example 55, N-(3-(tert-butylamino)-2,2-diphenylpropyl)-3-fluoro-4-(2-(4-methylpyridin-2-ylamino)thiazol-5-ylthio)picolinamide] |
| 2950 | CC(C)(C)CNCC(CNC(=O)c1nccc(Sc2cnc(Nc3ccccn3)s2)c1F)(c1ccccc1)c1ccccc1 [Example 36, 3-Fluoro-N-(3-(neopentylamino)-2,2-diphenylpropyl)-4-(2-(pyridin-2-ylamino)thiazol-5-ylthio)picolinamide] |
| 5 | CCNCC(CNC(=O)c1nccc(Sc2cnc(Nc3cc(C)ccn3)s2)c1F)(c1ccccc1)c1ccccc1 [Example 69, N-(3-(ethylamino)-2,2-diphenylpropyl)-3-fluoro-4-(2-(4-methylpyridin-2-ylamino)thiazol-5-ylthio)picolinamide] |
| 3 | Cc1ccnc(Nc2ncc(Sc3ccnc(C(=O)NCC(CN(C)CCO)(c4ccccc4)c4ccccc4)c3F)s2)c1 [Example 52, 3-Fluoro-N-(3-((2-hydroxyethyl)(methyl)amino)-2,2-diphenylpropyl)-4-(2-(4-methylpyridin-2-ylamino)thiazol-5-ylthio)picolinamide] |
| 886 | Cc1ccnc(Nc2ncc(Sc3ccnc(C(=O)NCC(CN4CCCCC4)(c4ccccc4)c4ccccc4)c3F)s2)c1 [Example 49, N-(2,2-diphenyl-3-(piperidin-1-yl)propyl)-3-fluoro-4-(2-(4-methylpyridin-2-ylamino)thiazol-5-ylthio)picolinamide] |
